Data as given in ChEMBL document CHEMBL4219254, “Harnessing biosynthesis and quantitative NMR for late stage functionalization of lead molecules: Application to the M1 positive allosteric modulator (PAM) program” (Bioorg Med Chem Lett, 2018).
Each block holds one molecule with its values, some of them ahead of it.

Legend:
[1] = biological target: T1, Muscarinic acetylcholine receptor M1 (Homo sapiens, UniProt P11229); experiment: Positive allosteric modulation of human muscarinic M1 receptor expressed in CHO cells assessed as increase in ACh-induced intracellular calcium level preincubated for 10 mins followed by ACh addition measured every 2 secs for 80 secs by Fluo-4 dye-based FLIPR assay; assay type: functional, cell-based
T1 sequence (P11229 whole entry): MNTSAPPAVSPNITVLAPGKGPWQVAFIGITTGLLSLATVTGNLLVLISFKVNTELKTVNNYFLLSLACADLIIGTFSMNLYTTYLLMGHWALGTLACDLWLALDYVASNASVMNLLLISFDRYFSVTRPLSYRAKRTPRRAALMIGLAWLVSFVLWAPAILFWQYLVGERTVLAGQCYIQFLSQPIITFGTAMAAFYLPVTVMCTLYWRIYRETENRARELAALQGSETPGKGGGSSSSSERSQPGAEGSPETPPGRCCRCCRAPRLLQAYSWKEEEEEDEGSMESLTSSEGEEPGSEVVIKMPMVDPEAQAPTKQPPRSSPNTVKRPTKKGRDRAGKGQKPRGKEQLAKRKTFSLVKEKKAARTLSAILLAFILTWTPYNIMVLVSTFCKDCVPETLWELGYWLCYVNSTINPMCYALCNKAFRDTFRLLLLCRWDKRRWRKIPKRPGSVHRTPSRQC

[2] = Drug level in rabbit liver microsomes treated with 4-(4-(1H-pyrazol-1-yl)benzyl)-N-((3R,4S)-3-hydroxytetrahydro-2H-pyran-4-yl)-5-methylpicolinamide at 20 uM after 60 mins by UHPLC-UV-HRMS analysis; assay type: ADME, Oryctolagus cuniculus, microsome
[3] = Drug level in dexamethasone-induced rat liver microsomes treated with N-((3R,4S)-3-hydroxytetrahydro-2H-pyran-4-yl)-5-methyl-4-(4-(thiazol-4-yl)benzyl)picolinamide at 20 uM after 60 mins by UHPLC-UV-HRMS analysis; assay type: ADME, microsome; settings: 1 h
[4] = Drug level in rabbit liver microsomes treated with 5-(4-(1H-pyrazol-1-yl)benzyl)-N-((1S,2S)-2-hydroxycyclohexyl)-1,6-dimethyl-2-oxo-1,2-dihydropyridine-3-carboxamide at 20 uM after 60 mins by UHPLC-UV-HRMS analysis; assay type: ADME, Oryctolagus cuniculus, microsome
[5] = Drug level in guinea pig liver microsomes treated with 1-(4-(1H-pyrazol-1-yl)benzyl)-N-((1S,2S)-2-hydroxycyclohexyl)-1H-pyrrolo[3,2-b]pyridine-3-carboxamide at 20 uM after 75 mins by UHPLC-UV-HRMS analysis; assay type: ADME, Cavia porcellus, microsome; settings: 1.25 h
[6] = Permeability in RRCK cells; assay type: ADME, cell-based, Canis lupus familiaris, MDCKII-LE; settings: dog, MDCK; read-out: permeability
[7] = Drug level in hamster liver microsomes treated with N-((3R,4S)-3-hydroxytetrahydro-2H-pyran-4-yl)-1-(4-(1-methyl-1H-pyrazol-3-yl)benzyl)-1H-pyrrolo[3,2-b]pyridine-3-carboxamide at 20 uM by UHPLC-UV-HRMS analysis; assay type: ADME, microsome; settings: cricetinae
[8] = Intrinsic clearance in human liver microsomes; assay type: ADME, microsome; settings: read-out: CLH
MDR1 = experiment: Efflux ratio of permeability in MDCK cells expressing MDR1; assay type: ADME, cell-based, Canis lupus familiaris; settings: dog
[9] = Drug metabolism in rabbit liver microsomes assessed as formation of 4-(4-(1H-pyrazol-1-yl)benzyl)-5-(hydroxymethyl)-N-((3R,4S)-3-hydroxytetrahydro-2H-pyran-4-yl)picolinamide at 20 uM after 60 mins by UHPLC-UV-HRMS analysis; assay type: ADME, Oryctolagus cuniculus, microsome
[10] = Drug metabolism in rabbit liver microsomes assessed as formation of 4-(4-(4-hydroxy-1H-pyrazol-1-yl)benzyl)-N-((3R,4S)-3-hydroxytetrahydro-2H-pyran-4-yl)-5-methylpicolinamide at 20 uM after 60 mins by UHPLC-UV-HRMS analysis; assay type: ADME, Oryctolagus cuniculus, microsome
[11] = Drug metabolism in rabbit liver microsomes assessed as formation of 4-(4-(1H-pyrazol-1-yl)benzyl)-N-((3R,4S)-2,3-dihydroxytetrahydro-2H-pyran-4-yl)-5-methylpicolinamide at 20 uM after 60 mins by UHPLC-UV-HRMS analysis; assay type: ADME, Oryctolagus cuniculus, microsome
[12] = Drug metabolism in rabbit liver microsomes assessed as formation of 4-(4-(1H-pyrazol-1-yl)benzyl)-N-((4S,5R)-2,5-dihydroxytetrahydro-2H-pyran-4-yl)-5-methylpicolinamide at 20 uM after 60 mins by UHPLC-UV-HRMS analysis; assay type: ADME, Oryctolagus cuniculus, microsome
[13] = Drug metabolism in rabbit liver microsomes assessed as formation of 4-((4-(1H-pyrazol-1-yl)phenyl)(hydroxy)methyl)-N-((3R,4S)-3-hydroxytetrahydro-2H-pyran-4-yl)-5-methylpicolinamide at 20 uM after 60 mins by UHPLC-UV-HRMS analysis; assay type: ADME, Oryctolagus cuniculus, microsome
[14] = Drug metabolism in rabbit liver microsomes assessed as formation of 4-(4-(1H-pyrazol-1-yl)benzyl)-5-methyl-N-((2R,3S)-1,2,5-trihydroxypentan-3-yl)picolinamide at 20 uM after 60 mins by UHPLC-UV-HRMS analysis; assay type: ADME, Oryctolagus cuniculus, microsome
[15] = Drug level in rat liver microsomes treated with N-((3R,4S)-3-hydroxytetrahydro-2H-pyran-4-yl)-5-methyl-1-(4-(1-methyl-1H-pyrazol-3-yl)benzyl)-1H-pyrrolo[3,2-b]pyridine-3-carboxamide at 20 uM after 70 mins by UHPLC-UV-HRMS analysis; assay type: ADME, microsome
[16] = Drug metabolism in dexamethasone-induced rat liver microsomes assessed as formation of N-((3R,4S)-2,3-dihydroxytetrahydro-2H-pyran-4-yl)-5-methyl-4-(4-(thiazol-4-yl)benzyl)picolinamide at 20 uM after 60 mins by UHPLC-UV-HRMS analysis; assay type: ADME, microsome; settings: 1 h
[17] = Drug metabolism in dexamethasone-induced rat liver microsomes assessed as formation of 4-(hydroxy(4-(thiazol-4-yl)phenyl)methyl)-N-((3R,4S)-3-hydroxytetrahydro-2H-pyran-4-yl)-5-methylpicolinamide at 20 uM after 60 mins by UHPLC-UV-HRMS analysis; assay type: ADME, microsome; settings: 1 h
[18] = Drug metabolism in rabbit liver microsomes assessed as formation of 5-(4-(1H-pyrazol-1-yl)benzyl)-N-((1S,2S)-2-hydroxycyclohexyl)-6-(hydroxymethyl)-1-methyl-2-oxo-1,2-dihydropyridine-3-carboxamide at 20 uM after 60 mins by UHPLC-UV-HRMS analysis; assay type: ADME, Oryctolagus cuniculus, microsome
[19] = Drug metabolism in rabbit liver microsomes assessed as formation of 5-(4-(1H-pyrazol-1-yl)benzyl)-N-((1S,2S)-2,4-dihydroxycyclohexyl)-1,6-dimethyl-2-oxo-1,2-dihydropyridine-3-carboxamide at 20 uM after 60 mins by UHPLC-UV-HRMS analysis; assay type: ADME, Oryctolagus cuniculus, microsome
[20] = Drug metabolism in rabbit liver microsomes assessed as formation of 5-(4-(1H-pyrazol-1-yl)benzyl)-N-((1S,2S)-2,5-dihydroxycyclohexyl)-6-methyl-2-oxo-1,2-dihydropyridine-3-carboxamide at 20 uM after 60 mins by UHPLC-UV-HRMS analysis; assay type: ADME, Oryctolagus cuniculus, microsome
[21] = Drug metabolism in rabbit liver microsomes assessed as formation of 5-(4-(1H-pyrazol-1-yl)benzyl)-N-((1S,2S)-2,4-dihydroxycyclohexyl)-6-(hydroxymethyl)-1-methyl-2-oxo-1,2-dihydropyridine-3-carboxamide at 20 uM after 60 mins by UHPLC-UV-HRMS analysis; assay type: ADME, Oryctolagus cuniculus, microsome

EC50 [1]: > 300 nM
Drug metabolism [2]: Metabolite_Detected
SMILES: Cc1cnc(C(=O)N[C@@H](CCO)[C@@H](O)CO)cc1Cc1ccc(-n2cccn2)cc1

EC50 [1]: 162 nM
Drug metabolism [3]: Metabolite_Detected
SMILES: Cc1cnc(C(=O)N[C@H]2CCOC(O)[C@@H]2O)cc1Cc1ccc(-c2cscn2)cc1 (some centres not stated)

EC50 [1]: 63 nM
Drug metabolism [4]: Metabolite_Detected
SMILES: Cc1c(Cc2ccc(-n3cccn3)cc2)cc(C(=O)N[C@H]2CCC(O)C[C@@H]2O)c(=O)n1C (some centres not stated)

EC50 [1]: 511 nM
Drug metabolism [2]: Metabolite_Detected
SMILES: Cc1cnc(C(=O)N[C@H]2CCOC(O)[C@@H]2O)cc1Cc1ccc(-n2cccn2)cc1 (some centres not stated)

SMILES: O=C(N[C@H]1CCCC[C@@H]1O)c1cn(Cc2ccc([N+]3([O-])C=CC=N3)cc2)c2cccnc12 (some centres not stated)
EC50 [1]: 34 nM
Drug metabolism [5]: Metabolite_Detected

EC50 [1]: > 3000 nM
Drug metabolism [2]: Metabolite_Detected
SMILES: Cc1cnc(C(=O)N[C@H]2CC(O)OC[C@@H]2O)cc1Cc1ccc(-n2cccn2)cc1 (some centres not stated)

SMILES: Cc1ccc2c(n1)c(C(=O)N[C@H]1CCOC[C@@H]1O)cn2Cc1ccc(-c2ccn(C)n2)cc1
Papp [6]: 21 ×10⁻⁶ cm/s

SMILES: O=C(N[C@H]1CCOC[C@@H]1O)c1cn(Cc2ccc(-c3cc[nH]n3)cc2)c2cccnc12
Drug metabolism [7]: Metabolite_Detected

SMILES: O=C(N[C@H]1C(O)CCC[C@@H]1O)c1cn(Cc2ccc(-n3cccn3)cc2)c2cccnc12 (some centres not stated)
EC50 [1]: > 249 nM
Drug metabolism [5]: Metabolite_Detected

SMILES: O=C(N[C@H]1CCC(O)C[C@@H]1O)c1cn(Cc2ccc(-n3cccn3)cc2)c2cccnc12 (stereo in doubt; 20a)
EC50 [1]: 167 nM
Drug metabolism [5]: Metabolite_Detected

EC50 [1]: > 1100 nM
SMILES: Cc1cnc(C(=O)N[C@H]2CCOC[C@@H]2O)cc1C(O)c1ccc(-c2cscn2)cc1 (stereo in doubt; 14b)

SMILES: O=C(N[C@H]1CCC(O)C[C@@H]1O)c1cn(Cc2ccc(-n3cccn3)cc2)c2cccnc12 (stereo in doubt; 20b)
EC50 [1]: 16 nM

EC50 [1]: 338 nM
CLint scaled [8]: < 8 mL/min/kg
Papp [6]: 4.6 ×10⁻⁶ cm/s
efflux ratio (MDR1): 15.9
Drug metabolism [2]: Metabolite_Detected
SMILES: O=C(N[C@H]1CCOC[C@@H]1O)c1cc(Cc2ccc(-n3cccn3)cc2)c(CO)cn1

SMILES: O=C(N[C@H]1CCCC[C@@H]1O)c1cn(Cc2ccc(-n3cccn3)cc2)c2cccnc12
Papp [6]: 16.2 ×10⁻⁶ cm/s

Drug metabolism [9]: Metabolite_Detected
Drug metabolism [10]: Metabolite_Detected
Drug metabolism [11]: Metabolite_Detected
Drug metabolism [12]: Metabolite_Detected
Drug metabolism [13]: Metabolite_Detected
Drug metabolism [14]: Metabolite_Detected
SMILES: Cc1cnc(C(=O)N[C@H]2CCOC[C@@H]2O)cc1Cc1ccc(-n2cccn2)cc1

EC50 [1]: 70 nM
Drug metabolism [2]: Metabolite_Detected
SMILES: Cc1cnc(C(=O)N[C@H]2CCOC[C@@H]2O)cc1Cc1ccc(-n2cc(O)cn2)cc1

SMILES: Cn1ccc(-c2ccc(Cn3cc(C(=O)N[C@H]4CCOC[C@@H]4O)c4nc(CO)ccc43)cc2)n1
EC50 [1]: 99 nM
Drug metabolism [15]: Metabolite_Detected

EC50 [1]: 177 nM
Drug metabolism [4]: Metabolite_Detected
SMILES: Cn1c(CO)c(Cc2ccc(-n3cccn3)cc2)cc(C(=O)N[C@H]2CCC(O)C[C@@H]2O)c1=O (some centres not stated)

SMILES: Cn1ccc(-c2ccc(Cn3cc(C(=O)N[C@H]4CCOC(O)[C@@H]4O)c4ncccc43)cc2)n1 (some centres not stated)
EC50 [1]: > 257 nM
Drug metabolism [7]: Metabolite_Detected

EC50 [1]: > 1000 nM
Drug metabolism [2]: Metabolite_Detected
SMILES: Cc1cnc(C(=O)N[C@H]2CCOC[C@@H]2O)cc1C(O)c1ccc(-n2cccn2)cc1 (stereo in doubt; 11a)

EC50 [1]: > 4150 nM
Drug metabolism [3]: Metabolite_Detected
SMILES: Cc1cnc(C(=O)N[C@H]2CCOC[C@@H]2O)cc1C(O)c1ccc(-c2cscn2)cc1 (stereo in doubt; 14a)

EC50 ([1]; cho): > 1000 nM
SMILES: Cc1cnc(C(=O)N[C@H]2CCOC[C@@H]2O)cc1C(O)c1ccc(-n2cccn2)cc1 (stereo in doubt; 11b)

EC50 [1]: 12 nM
Drug metabolism [4]: Metabolite_Detected
SMILES: Cc1[nH]c(=O)c(C(=O)N[C@H]2CC(O)CC[C@@H]2O)cc1Cc1ccc(-n2cccn2)cc1 (some centres not stated)

Drug metabolism [16]: Metabolite_Detected
Drug metabolism [17]: Metabolite_Detected
SMILES: Cc1cnc(C(=O)N[C@H]2CCOC[C@@H]2O)cc1Cc1ccc(-c2cscn2)cc1

SMILES: Cn1ccc(-c2ccc(Cn3cc(C(=O)N[C@H]4CC(O)OC[C@@H]4O)c4ncccc43)cc2)n1 (some centres not stated)
EC50 [1]: > 207 nM
Drug metabolism [7]: Metabolite_Detected

EC50 [1]: 40 nM
Drug metabolism [4]: Metabolite_Detected
SMILES: Cn1c(CO)c(Cc2ccc(-n3cccn3)cc2)cc(C(=O)N[C@H]2CCCC[C@@H]2O)c1=O

SMILES: O=C(N[C@H]1CC(O)CC[C@@H]1O)c1cn(Cc2ccc(-n3cccn3)cc2)c2cccnc12 (some centres not stated)
EC50 [1]: > 72 nM
Drug metabolism [5]: Metabolite_Detected

efflux ratio (MDR1): 2.7
Drug metabolism [18]: Metabolite_Detected
Drug metabolism [19]: Metabolite_Detected
Drug metabolism [20]: Metabolite_Detected
Drug metabolism [21]: Metabolite_Detected
SMILES: Cc1c(Cc2ccc(-n3cccn3)cc2)cc(C(=O)N[C@H]2CCCC[C@@H]2O)c(=O)n1C

SMILES: Cn1ccc(-c2ccc(Cn3cc(C(=O)N[C@H]4CCOC[C@@H]4O)c4nc(C=O)ccc43)cc2)n1
EC50 [1]: 184 nM
Drug metabolism [15]: Metabolite_Detected
